The source of these data is US20090275574A1, “NOVEL COMPOUNDS-300” (ASTRAZENECA AB, priority 2008, published 2009).

The term EC50 denotes the midpoint of the concentration-response curve.

The structures appear in SMILES notation.

The first assay has as its target T1, cloned human M2 receptor (Homo sapiens, UniProt P08172).
T1 construct: purchased Perkin-Elmer RBHM2M; host or cells: Chinese hamster ovary cells (CHO), membranes
T1 sequence (P08172 1-466): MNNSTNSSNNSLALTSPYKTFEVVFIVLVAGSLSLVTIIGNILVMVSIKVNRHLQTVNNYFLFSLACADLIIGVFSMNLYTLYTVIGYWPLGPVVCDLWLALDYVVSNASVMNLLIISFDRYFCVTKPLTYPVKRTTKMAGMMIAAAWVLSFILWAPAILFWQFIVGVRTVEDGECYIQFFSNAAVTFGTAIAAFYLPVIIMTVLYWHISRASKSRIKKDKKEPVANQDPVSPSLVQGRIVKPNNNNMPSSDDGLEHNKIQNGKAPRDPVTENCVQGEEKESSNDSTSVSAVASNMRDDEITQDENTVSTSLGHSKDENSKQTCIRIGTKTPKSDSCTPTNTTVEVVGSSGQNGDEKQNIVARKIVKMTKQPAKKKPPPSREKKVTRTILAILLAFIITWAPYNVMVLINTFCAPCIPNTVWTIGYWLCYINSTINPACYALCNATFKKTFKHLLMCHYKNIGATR
The experiment in a line: hM2 receptor GTPγS binding. In kind it is biochemical. The conditions noted are these: CHO membranes expressing hM2, [35S]GTPγS binding. As for the experimental part: hM2 Receptor GTPγS Binding Membranes produced from Chinese hamster ovary cells (CHO) expressing the cloned human M2 receptor (human Muscarinic receptor subtype 2, gene bank access NM_000739), are obtained from Perkin-Elmer (RBHM2M). The membranes are thawed at 37° C., passed 3 times through a 23-gauge blunt-end needle, diluted in the GTPγS binding buffer (50 mM Hepes, 20 mM NaOH, 100 mM NaCl, 1 mM EDTA, 5 mM MgCl2, pH 7.4, 100 μM DTT). The EC50, IC50 and Emax of the compounds of the invention are evaluated from 10-point dose-response curves (three fold concentration range) done in 60 μl in 384-well non-specific binding surface plate (Corning). Ten microliters from the dose-response curves plate (5× concentration) are transferred to another 384 well plate containing 25 μl of the following: 5 μg of hM2 membranes, 500 μg of Flashblue beads (Perkin-Elmer) and GDP 25 μM. An additional 15 μl containing 3.3× (60,000 dpm) of GTPγ^35S (0.4 nM final) are added to the wells resulting in a total well volume of 50 μl. Basal and maximal stimulated [^35S]GTPγS binding are determined in absence and presence of 30 μM final of acetylcholine agonist. The membranes/beads mix are pre-incubated for 15 minutes at room temperature with 25 μM GDP prior to distribution in plates (12.5 μM final). The reversal of acetylcholine-induced stimulation (2 μM final) of [^35S]GTPγS binding is used to assay the antagonist properties (IC50) of the compounds. The plates are incubated for 60 minutes at room temperature then centrifuged at 400 rpm for 5 minutes. The radioactivity (cpm) is counted in a Trilux (Perkin-Elmer). Values of EC50, IC50 and Emax are obtained using sigmoidal fits of a non-linear curve-fitting program (XLfit version 4.2.2 Excel add-in version 4.2.2 build 18 math 1Q version 2.1.2 build 18) of percent stimulated [^35S]GTPγS binding vs. log(molar ligand). All pEC50 and pIC50 values are reported as arithmetic means±standard error of mean of ‘n’ independent experiments.
A general note: GTPγS is a poorly hydrolysed GTP analogue; its binding reports G protein activation.
`O=C1NC[C@H]2CCCC[C@@H]2N1C1CCN(C2CCC(COCC(F)F)CC2)CC1` (single isomer, unassigned) [Example 50] came in with an EC50 of 340 nM.

`O=C1CO[C@H]2CCCC[C@@H]2N1C1CCN(C2CC(COCC3CC3)C2)CC1` (single isomer, unassigned) [Example 41] came in with an EC50 above 15000 nM.

For a further assay, the target named is T2, hM3 (human Muscarinic receptor subtype 3) (Homo sapiens, UniProt P20309).
T2 construct: expressed in transfected cells; host or cells: CHO cells (ATCC)
T2 sequence (P20309 whole entry): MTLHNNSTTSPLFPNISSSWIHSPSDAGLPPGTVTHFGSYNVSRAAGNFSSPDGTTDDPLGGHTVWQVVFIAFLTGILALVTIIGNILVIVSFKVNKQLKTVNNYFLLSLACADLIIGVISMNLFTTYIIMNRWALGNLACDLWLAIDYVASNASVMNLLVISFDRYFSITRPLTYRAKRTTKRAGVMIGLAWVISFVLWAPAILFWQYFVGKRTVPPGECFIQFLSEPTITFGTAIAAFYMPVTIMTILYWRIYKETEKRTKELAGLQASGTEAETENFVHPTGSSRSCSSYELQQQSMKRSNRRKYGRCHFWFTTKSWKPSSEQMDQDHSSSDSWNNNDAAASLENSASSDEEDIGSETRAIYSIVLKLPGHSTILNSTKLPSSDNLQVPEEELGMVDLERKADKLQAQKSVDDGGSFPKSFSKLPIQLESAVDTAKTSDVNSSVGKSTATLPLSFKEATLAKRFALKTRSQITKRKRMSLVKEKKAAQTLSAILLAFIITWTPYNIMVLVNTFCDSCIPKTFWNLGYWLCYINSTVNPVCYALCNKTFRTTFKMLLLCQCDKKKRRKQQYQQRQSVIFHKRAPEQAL
The experiment in a line: Human M3 calcium mobilization FLIPR assay. The class given is cell-based. The conditions noted are these: hM3 expressed in CHO cells, intracellular Ca2+ release (FLIPR). As for the experimental part: (§1) Human M1, rat M1, Human M3 and Human M5 Calcium Mobilization FLIPR™ Assay The compound activity in the present invention (EC50 or IC50) is measured using a 384 plate-based imaging assay that monitors drug induced intracellular Ca^2+ release in whole cells. Activation of hM1 (human Muscarinic receptor subtype 1, gene bank access NM_000738), rM1 (rat Muscarinic receptor subtype 1, gene bank access NM_080773), hM3 (human Muscarinic receptor subtype 3, gene bank access NM_000740NM_000740) and hM5 (human Muscarinic receptor subtype 5, gene bank access NM_0121258), receptors expressed in CHO cells (Chinese hamster ovary cells, ATCC) is quantified in a Molecular Devices FLIPR IITM instrument as an increase in fluorescent signal. Inhibition of hM3 and hM5 by compounds is determined by the decrease in fluorescent signal in response to 2 nM acetylcholine activation. […] Prior to experiment, the cell culture medium is removed from the plates by inversion. […] Plates are incubated at 37° C. for 60 minutes prior to start the experiment. The incubation is terminated by washing the cells four times in assay buffer, leaving a residual 25 μl buffer per well. Cell plates are then transferred to the FLIPR, ready for compound additions. The day of experiment, acetylcholine and compounds are diluted in assay buffer in three-fold concentration range (10 points serial dilution) for addition by FLIPR instrument. For all calcium assays, a baseline reading is taken for 10 seconds followed by the addition of 12.5 μl of compounds, resulting in a total well volume of 37.5 μl. Data is collected every second for 60 pictures and then every 6 seconds for 20 pictures prior to the addition of agonist. For hM3 and hM5, before agonist addition, a second baseline reading is taken for 10 seconds followed by the addition of 12.5 μl of agonist or buffer, producing a final volume of 50 μl. After agonist stimulation, the FLIPR continues to collect data every second for 60 pictures and then every 6 seconds for 20 pictures. The fluorescence emission is read using filter 1 (emission 510-570 nm) by the FLIPR on board CCD camera. Calcium mobilization output data are calculated as the maximal relative fluorescence unit (RFU) minus the minimal value for both compound and agonist reading frame (except for hM1 and rM1 using only the maximal RFU). Data are analyzed using sigmoidal fits of a non-linear curve-fitting program (XLfit version 4.2.2 Excel add-in version 4.2.2 build 18 math 1Q version 2.1.2 build 18). All pEC50 and pIC50 values are reported as arithmetic means±standard error of mean of ‘n’ independent experiments.
In general terms: A change in cytosolic calcium serves as a functional read-out for many receptors and channels.
Turning to `CCC1CCC(N2CCC(N3C(=O)NC[C@H]4CCCC[C@@H]43)CC2)CC1` (mixture of isomers) [Example 11, (4aR,8aS)-1-(1-(4-ethylcyclohexyl)piperidin-4-yl)octahydroquinazolin-2(1H)-one], the half-maximal effective concentration (EC50) was above 40000 nM.

Regarding `O=C1NC[C@H]2CCCC[C@@H]2N1C1CCN(C2CCCCC2)CC1` [Example 12, (4aR,8aS)-1-(1-cyclohexylpiperidin-4-yl)octahydroquinazolin-2(1H)-one], the 50% effective concentration (EC50) was above 40000 nM.

The target in a further assay is T3, hM1 (human Muscarinic receptor subtype 1) (Homo sapiens, UniProt P11229).
T3 construct: expressed in transfected cells; host or cells: CHO cells (ATCC)
T3 sequence (P11229 1-460): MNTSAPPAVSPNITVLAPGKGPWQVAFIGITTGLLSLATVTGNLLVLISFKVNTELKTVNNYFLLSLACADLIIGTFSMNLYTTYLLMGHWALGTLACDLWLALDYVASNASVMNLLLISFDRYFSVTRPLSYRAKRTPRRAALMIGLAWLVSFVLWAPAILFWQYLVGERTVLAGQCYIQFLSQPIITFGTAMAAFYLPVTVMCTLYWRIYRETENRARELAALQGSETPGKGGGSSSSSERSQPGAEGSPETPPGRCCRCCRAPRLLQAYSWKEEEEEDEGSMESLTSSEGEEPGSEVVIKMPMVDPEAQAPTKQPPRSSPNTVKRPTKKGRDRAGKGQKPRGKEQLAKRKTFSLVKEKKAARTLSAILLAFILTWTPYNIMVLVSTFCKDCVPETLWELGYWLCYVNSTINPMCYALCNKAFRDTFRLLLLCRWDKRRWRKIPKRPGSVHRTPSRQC
The experiment in a line: Human M1 calcium mobilization FLIPR assay. In kind it is cell-based. As to conditions: hM1 expressed in CHO cells, intracellular Ca2+ release (FLIPR). The method, then: as §1
Turning to `O=C1NC[C@H]2CCCC[C@@H]2N1C1CCN(C2CCCC2)CC1` [Example 10, (4aR,8aS)-1-(1-cyclopentylpiperidin-4-yl)octahydroquinazolin-2(1H)-one], the EC50 came to 68 nM.

Turning to `CCOCC1(C)CCC(N2CCC(N3C(=O)CO[C@H]4CCCC[C@@H]43)CC2)CC1` (single isomer, unassigned) [Example 31], the EC50 amounted to 190 nM.

Turning to `O=C1NC[C@H]2CCCC[C@@H]2N1C1CCN(C2CCC(COCC(F)F)CC2)CC1` (single isomer, unassigned) [Example 50], the EC50 worked out at 0.76 nM.

`CCC1CCC(N2CCC(N3C(=O)NC[C@H]4CCCC[C@@H]43)CC2)CC1` (mixture of isomers) [Example 11, (4aR,8aS)-1-(1-(4-ethylcyclohexyl)piperidin-4-yl)octahydroquinazolin-2(1H)-one]: the EC50 worked out at 43 nM.

Regarding `CCOC[C@H]1CC[C@@H](N2CCC(N3C(=O)COC4CCCCC43)CC2)CC1` (single isomer, unassigned) [Example 34], the EC50 worked out at 80 nM.

With `O=C1NC[C@H]2CCCC[C@@H]2N1C1CCN(C2CCCCC2)CC1` [Example 12, (4aR,8aS)-1-(1-cyclohexylpiperidin-4-yl)octahydroquinazolin-2(1H)-one], the EC50 was found to be 60 nM.

As to `CCOC[C@H]1CC[C@@H](N2CCC(N3C(=O)CO[C@@H]4CCCC[C@H]43)CC2)C1` [Example 46, (4aR,8aR)-4-(1-((1R,3S)-3-(ethoxymethyl)cyclopentyl)piperidin-4-yl)hexahydro-2H-benzo[b][1,4]oxazin-3(4H)-one], the EC50 came to 290 nM.

Turning to `CC(C)OC1CCC(N2CCC(N3C(=O)NC[C@H]4CCCC[C@@H]43)CC2)CC1` (single isomer, unassigned) [Example 07], the EC50 amounted to 660 nM.

As to `CC(C)OCC1CCC(N2CCC(N3C(=O)CO[C@@H]4CCC(F)(F)C[C@H]43)CC2)CC1` (single isomer, unassigned) [Example 35], the EC50 is 180 nM.

For `CC(C)OCC1CCC(N2CCC(N3C(=O)CO[C@@H]4CCC(F)(F)C[C@H]43)CC2)CC1` (single isomer, unassigned) [Example 36], the EC50 came out at 310 nM.

Regarding `CCCOC1CCC(N2CCC(N3C(=O)NC[C@H]4CCCC[C@@H]43)CC2)CC1` (single isomer, unassigned) [Example 05], the half-maximal effective concentration (EC50) was 160 nM.

With `O=C1CO[C@H]2CCCC[C@@H]2N1C1CCN(C2CCC(OCC3CC3)CC2)CC1` (single isomer, unassigned) [Example 21], the EC50 was determined as 110 nM.

In the case of `O=C1CO[C@H]2CCCC[C@@H]2N1C1CCN(C2CCC(OCC3CC3)CC2)CC1` (single isomer, unassigned) [Example 20], the concentration giving a half-maximal response (EC50) was 170 nM.

In the case of `C#CCOC1CCC(N2CCC(N3C(=O)NC[C@H]4CCCC[C@@H]43)CC2)CC1` (mixture of isomers) [Example 09, (4aR,8aS)-1-(1-(4-(prop-2-ynyloxy)cyclohexyl)piperidin-4-yl)octahydroquinazolin-2(1 H)-one], the EC50 is 31 nM.

In the case of `O=C1CO[C@@H]2CCCC[C@H]2N1C1CCN([C@H]2CC[C@@H](COCC3CC3)CC2)CC1` [Example 32, (4aR,8aR)-4-(1-((1s,4S)-4-((cyclopropylmethoxy)methyl)cyclohexyl)piperidin-4-yl)hexahydro-2H-benzo[b][1,4]oxazin-3(4H)-one], the EC50 worked out at 190 nM.

Regarding `CCOCC1(C)CCC(N2CCC(N3C(=O)CO[C@H]4CCCC[C@@H]43)CC2)CC1` (single isomer, unassigned) [Example 30], the EC50 turned out to be 200 nM.

Consider `O=C1COC2CCCC2N1C1CCN([C@H]2CC[C@@H](COCC3CC3)CC2)CC1` (single isomer, unassigned) [Example 49], for which the EC50 came to 110 nM.

For `O=C1CO[C@@H]2CCC[C@@H]2N1C1CCN([C@H]2CC[C@@H](COCC3CC3)CC2)CC1` [Example 47, (4aS,7aR)-4-(1-((1s,4R)-4-((cyclopropylmethoxy)methyl)cyclohexyl)piperidin-4-yl)hexahydrocyclopenta[b][1,4]oxazin-3(2H)-one], the EC50 is 93 nM.

As to `CCOC[C@H]1CC[C@@H](N2CCC(N3C(=O)COC4CCCCC43)CC2)CC1` (single isomer, unassigned) [Example 33], the concentration for a half-maximal effect (EC50) came to 110 nM.

Regarding `CCCOC1CCC(N2CCC(N3C(=O)CO[C@H]4CCCC[C@@H]43)CC2)CC1` (single isomer, unassigned) [Example 16], the EC50 came out at 190 nM.

Turning to `O=C1CO[C@H]2CCCC[C@@H]2N1C1CCN(C2CC(COCC3CC3)C2)CC1` (single isomer, unassigned) [Example 41], the concentration for a half-maximal effect (EC50) is 52 nM.
